Each compound was assayed against EGFR (UniProt P00533).
Chain of EGFR (P00533 whole entry, looked up): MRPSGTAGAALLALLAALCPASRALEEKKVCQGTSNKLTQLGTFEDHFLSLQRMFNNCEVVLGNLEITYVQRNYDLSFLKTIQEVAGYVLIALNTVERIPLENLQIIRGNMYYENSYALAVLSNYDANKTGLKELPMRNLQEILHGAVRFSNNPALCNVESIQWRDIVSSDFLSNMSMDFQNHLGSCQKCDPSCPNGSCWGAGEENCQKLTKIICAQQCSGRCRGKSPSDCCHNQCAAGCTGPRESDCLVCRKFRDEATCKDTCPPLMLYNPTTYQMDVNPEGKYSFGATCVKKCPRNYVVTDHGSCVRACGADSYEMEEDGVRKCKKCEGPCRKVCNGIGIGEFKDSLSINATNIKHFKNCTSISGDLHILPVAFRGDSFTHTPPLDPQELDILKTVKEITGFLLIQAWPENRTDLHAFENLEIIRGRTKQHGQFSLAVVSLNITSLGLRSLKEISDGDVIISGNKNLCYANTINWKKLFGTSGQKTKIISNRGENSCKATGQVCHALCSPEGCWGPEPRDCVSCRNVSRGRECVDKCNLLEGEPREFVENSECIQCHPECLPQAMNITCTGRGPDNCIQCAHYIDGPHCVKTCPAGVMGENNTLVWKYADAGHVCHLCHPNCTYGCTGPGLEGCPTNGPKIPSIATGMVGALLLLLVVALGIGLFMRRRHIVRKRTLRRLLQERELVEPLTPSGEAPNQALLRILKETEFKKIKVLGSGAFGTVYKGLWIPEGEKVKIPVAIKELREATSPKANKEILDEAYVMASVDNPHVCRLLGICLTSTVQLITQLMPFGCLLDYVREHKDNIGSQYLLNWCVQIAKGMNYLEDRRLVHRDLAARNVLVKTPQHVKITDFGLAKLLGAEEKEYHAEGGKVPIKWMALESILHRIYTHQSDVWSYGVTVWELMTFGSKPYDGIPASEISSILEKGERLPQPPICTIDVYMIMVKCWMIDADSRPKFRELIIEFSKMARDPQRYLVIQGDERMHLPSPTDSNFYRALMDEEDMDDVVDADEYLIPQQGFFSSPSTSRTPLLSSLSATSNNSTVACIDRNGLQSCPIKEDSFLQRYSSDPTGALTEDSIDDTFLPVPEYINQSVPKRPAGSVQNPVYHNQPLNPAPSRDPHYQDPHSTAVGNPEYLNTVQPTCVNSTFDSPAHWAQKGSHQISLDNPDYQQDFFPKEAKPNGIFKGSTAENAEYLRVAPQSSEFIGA

Which IC50 does the source give for `Cc1c(NC(=O)NCCN2CCOCC2)cn2ncnc(C3C(=O)Nc4ccccc43)c12` (stereo not drawn) here?
Its IC50 is 0.003 to 25 µM.

For `CCc1ccc(Nc2ncnn3cc(C(=O)NCCCN4CCOCC4)c(C)c23)cc1O`, which IC50 is on record?
Its IC50 is 0.003 to 25 µM.

`CCOC(=O)c1cn2ncnc(N3CCOCC3)c2c1CC` was tested. Which IC50 did it give?
Its IC50 is 0.003 to 25 µM.

Which IC50 does the source give for `Cc1ccc(Nc2ncnn3c(C)cc(C)c23)cc1O` here?
The IC50 was 0.003 to 25 µM.

Which IC50 does the source give for `CCOC(=O)c1cn2ncnc(NCC3(O)CCCCC3)c2c1CC` here?
Its IC50 is 0.003 to 25 µM.

With `Cc1ccc(Nc2ncnn3cc(C(=O)N4CCN(C)CC4)c(C)c23)cc1O` as the compound, how does the IC50 read?
Its IC50 is 0.003 to 25 µM.

For `COC(=O)c1cn2ncnc(Nc3cccc(O)c3C)c2c1C`, which IC50 is on record?
The IC50 was 0.003 to 25 µM.

How did the IC50 turn out when `COC(=O)c1cn2ncnc(Nc3cccc(O)c3)c2c1C` was run?
Its IC50 is 0.003 to 25 µM.

With `CCOC(=O)c1cn2ncnc(Nc3ccc(C)c(O)c3)c2c1OCC` as the compound, how does the IC50 read?
Its IC50 is 0.003 to 25 µM.

For `CCOC(=O)c1cn2ncnc(C3C(=O)Nc4ccccc43)c2c1CC` (stereo not drawn), which IC50 is on record?
The IC50 was 0.003 to 25 µM.

How did the IC50 turn out when `CCOC(=O)c1cn2ncnc(Nc3ccc4c(cnn4Cc4ccccc4)c3)c2c1Cc1ccccc1` was run?
Its IC50 is 0.003 to 25 µM.

For `COC(=O)c1cn2ncnc(Nc3ccc(C)c(NS(C)(=O)=O)c3)c2c1C`, which IC50 is on record?
The IC50 was 0.003 to 25 µM.

Which IC50 does the source give for `COC(=O)c1c(OC)c(OC)c2c(C3C(=O)Nc4ccccc43)ncnn12` (stereo not drawn) here?
Its IC50 is 0.003 to 25 µM.

For `Cc1c(N)cn2ncnc(C3C(=O)Nc4ccccc43)c12` (stereo not drawn), which IC50 is on record?
Its IC50 is 0.003 to 25 µM.

How did the IC50 turn out when `CCOC(=O)c1cn2ncnc(Nc3ccc(OC)nc3)c2c1C` was run?
The IC50 was 0.003 to 25 µM.

How did the IC50 turn out when `COC(=O)c1cn2ncnc(Nc3ccc(NC(C)=O)nc3)c2c1C` was run?
Its IC50 is 0.003 to 25 µM.

Which IC50 does the source give for `COC(=O)c1cn2ncnc(Nc3cc(C)[nH]n3)c2c1C` here?
The IC50 was 0.003 to 25 µM.

For `CCOC(=O)c1cn2ncnc(Nc3ccccc3)c2c1CC`, which IC50 is on record?
Its IC50 is 0.003 to 25 µM.

Which IC50 does the source give for `Fc1cc(Cl)ccc1Nc1ncnn2cccc12` here?
The IC50 was 0.003 to 25 µM.

Which IC50 does the source give for `Cc1ccc(Nc2ncnn3cc(C(=O)NCCCN4CCN(C)CC4)c(C)c23)cc1O` here?
Its IC50 is 0.003 to 25 µM.

With `Cc1c(NC(=O)NCCCCN2CCOCC2)cn2ncnc(C3C(=O)Nc4ccccc43)c12` (stereo not drawn) as the compound, how does the IC50 read?
The IC50 was 0.003 to 25 µM.

Which IC50 does the source give for `COC(=O)c1cn2ncnc(C3C(=O)Nc4ccc(F)cc43)c2c1C` (stereo not drawn) here?
The IC50 was 0.003 to 25 µM.

How did the IC50 turn out when `COC(=O)c1cn2ncnc(-c3c(O)[nH]c4cc(F)ccc34)c2c1C` was run?
The IC50 was 0.003 to 25 µM.

Which IC50 does the source give for `COC(=O)c1cn2ncnc(Nc3ccc(C#N)c(O)c3)c2c1C` here?
Its IC50 is 0.003 to 25 µM.

Which IC50 does the source give for `CCOC(=O)c1c(CC)c2c(Nc3ccc4c(cnn4Cc4ccccc4)c3)ncnn2c1Br` here?
The IC50 was 0.003 to 25 µM.

How did the IC50 turn out when `COC(=O)c1cn2ncnc(Nc3ccc4c(c3)NCC4)c2c1C` was run?
Its IC50 is 0.003 to 25 µM.

`Cc1ccc(Nc2ncnn3cc(C(=O)NCCN(C)C)c(C)c23)cc1O` was tested. Which IC50 did it give?
The IC50 was 0.003 to 25 µM.

How did the IC50 turn out when `COC(=O)c1cn2ncnc(Cl)c2c1C` was run?
The IC50 was 0.003 to 25 µM.

With `CCOC(=O)c1cn2ncnc(C3C(=O)Nc4ccccc43)c2c1OCC` (stereo not drawn) as the compound, how does the IC50 read?
The IC50 was 0.003 to 25 µM.

Which IC50 does the source give for `CCc1c(NC(=O)OCc2ccccc2)cn2ncnc(Nc3ccc(OC)nc3)c12` here?
The IC50 was 0.003 to 25 µM.

Which IC50 does the source give for `Cc1cc2c(Nc3ccc(C)c(O)c3)ncnn2c1` here?
Its IC50 is 0.003 to 25 µM.

Which IC50 does the source give for `COC(=O)c1cn2ncnc(Nc3ccc(Cl)c([N+](=O)[O-])c3)c2c1C` here?
The IC50 was 0.003 to 25 µM.

How did the IC50 turn out when `CCOC(=O)c1cn2ncnc(NCc3cccc(Br)c3)c2c1CC` was run?
The IC50 was 0.003 to 25 µM.

With `Cc1c(C(=O)CCN2CCOCC2)cn2ncnc(C3C(=O)Nc4ccccc43)c12` (stereo not drawn) as the compound, how does the IC50 read?
Its IC50 is 0.003 to 25 µM.

With `CCCc1c(C(=O)OCC)cn2ncnc(Nc3ccc4c(cnn4Cc4ccccc4)c3)c12` as the compound, how does the IC50 read?
The IC50 was 0.003 to 25 µM.

With `CCc1c(COCCN2CCOCC2)cn2ncnc(Nc3ccc4c(cnn4Cc4ccccc4)c3)c12` as the compound, how does the IC50 read?
The IC50 was 0.003 to 25 µM.

With `CCOC(=O)c1cn2ncnc(Nc3ccc4c(cnn4Cc4ccccc4)c3)c2c1CC` as the compound, how does the IC50 read?
Its IC50 is 0.003 to 25 µM.

Which IC50 does the source give for `CCCc1c(C(=O)OCC)cn2ncnc(Nc3ccc(C)c(O)c3)c12` here?
The IC50 was 0.003 to 25 µM.

For `CCOC(=O)c1cn2ncnc(Nc3ccc(C)cc3)c2c1CC`, which IC50 is on record?
The IC50 was 0.003 to 25 µM.

For `CCOC(=O)c1cn2ncnc(Nc3ccc(C)c(N)c3)c2c1CC`, which IC50 is on record?
Its IC50 is 0.003 to 25 µM.

For `COC(=O)c1cn2ncnc(Nc3ccc4c(=O)[nH][nH]c(=O)c4c3)c2c1C`, which IC50 is on record?
Its IC50 is 0.003 to 25 µM.

With `Cc1c(CCCN2CCOCC2)cn2ncnc(Nc3cccc(Br)c3)c12` as the compound, how does the IC50 read?
The IC50 was 0.003 to 25 µM.

`CCc1ccc(Nc2ncnn3cc(C(=O)OC)c(C)c23)cc1O` was tested. Which IC50 did it give?
Its IC50 is 0.003 to 25 µM.

`Cc1ccc(Nc2ncnn3cc(CO)c(C)c23)cc1O` was tested. Which IC50 did it give?
The IC50 was 0.003 to 25 µM.

With `Cc1ccn2ncnc(Nc3ccc(Br)cc3F)c12` as the compound, how does the IC50 read?
The IC50 was 0.003 to 25 µM.

For `COC(=O)c1cn2ncnc(Nc3ccc4c(c3)OCCO4)c2c1C`, which IC50 is on record?
Its IC50 is 0.003 to 25 µM.

Which IC50 does the source give for `CCCCc1ccc(Nc2ncnn3cc(C(=O)OC)c(C)c23)cc1O` here?
The IC50 was 0.003 to 25 µM.

How did the IC50 turn out when `Cc1c(C(=O)NCCCN2CCOCC2)cn2ncnc(C3C(=O)Nc4ccc(S(N)(=O)=O)cc43)c12` (stereo not drawn) was run?
Its IC50 is 0.003 to 25 µM.

With `COC(=O)c1cn2ncnc(Nc3ccc(O)c(C(=O)O)c3)c2c1C` as the compound, how does the IC50 read?
The IC50 was 0.003 to 25 µM.

For `Cc1ccc(Nc2ncnn3cc(C(=O)OCc4ccccc4)c(C)c23)cc1O`, which IC50 is on record?
Its IC50 is 0.003 to 25 µM.

For `COC(=O)c1cn2ncnc(C3C(=O)N(C)c4ccccc43)c2c1C` (stereo not drawn), which IC50 is on record?
The IC50 was 0.003 to 25 µM.

Which IC50 does the source give for `CCOC(=O)c1cn2ncnc(Nc3ccc(Oc4ccccc4)cc3)c2c1CC` here?
Its IC50 is 0.003 to 25 µM.

With `Cc1c(NS(=O)(=O)CCCN2CCOCC2)cn2ncnc(C3C(=O)Nc4ccccc43)c12` (stereo not drawn) as the compound, how does the IC50 read?
Its IC50 is 0.003 to 25 µM.

For `COC(=O)c1cn2ncnc(Oc3cccc(O)c3)c2c1C`, which IC50 is on record?
The IC50 was 0.003 to 25 µM.

`COC(=O)c1cn2ncnc(Nc3ccc(OC)c(O)c3)c2c1C` was tested. Which IC50 did it give?
Its IC50 is 0.003 to 25 µM.

For `CCOC(=O)c1cn2ncnc(C3C(=O)Nc4ccccc43)c2c1OC` (stereo not drawn), which IC50 is on record?
The IC50 was 0.003 to 25 µM.

`CCOC(=O)c1cn2ncnc(N3CCCC4C=CC=CC43)c2c1CC` (stereo not drawn) was tested. Which IC50 did it give?
Its IC50 is 0.003 to 25 µM.

How did the IC50 turn out when `CCCc1c(C(=O)NCCCN2CCOCC2)cn2ncnc(Nc3ccc(C)c(O)c3)c12` was run?
The IC50 was 0.003 to 25 µM.

How did the IC50 turn out when `CCOC(=O)c1cn2ncnc(NCc3ccccc3Br)c2c1CC` was run?
Its IC50 is 0.003 to 25 µM.

How did the IC50 turn out when `COc1c(N)cn2ncnc(C3C(=O)Nc4ccccc43)c12` (stereo not drawn) was run?
The IC50 was 0.003 to 25 µM.

For `COCCCNC(=O)c1cn2ncnc(C3C(=O)Nc4ccccc43)c2c1C` (stereo not drawn), which IC50 is on record?
The IC50 was 0.003 to 25 µM.

With `CCOC(=O)c1cn2ncnc(Nc3ccc4c(cnn4Cc4ccccc4)c3)c2c1C(C)C` as the compound, how does the IC50 read?
The IC50 was 0.003 to 25 µM.

How did the IC50 turn out when `Cc1ccc(Nc2ncnn3cc(OCCCn4nccn4)c(C)c23)cc1O` was run?
The IC50 was 0.003 to 25 µM.

Which IC50 does the source give for `COC(=O)c1cn2ncnc(Nc3ccccc3S(N)(=O)=O)c2c1C` here?
Its IC50 is 0.003 to 25 µM.

For `COC(=O)c1cn2ncnc(Nc3cc(C)cc(O)c3)c2c1C`, which IC50 is on record?
The IC50 was 0.003 to 25 µM.

`COC(=O)c1cn2ncnc(C3C(=O)Nc4ccc(S(=O)(=O)NCCO)cc43)c2c1C` (stereo not drawn) was tested. Which IC50 did it give?
Its IC50 is 0.003 to 25 µM.

For `COC(=O)c1cn2ncnc(Nc3cc(NS(C)(=O)=O)ccc3C)c2c1C`, which IC50 is on record?
Its IC50 is 0.003 to 25 µM.

How did the IC50 turn out when `COC(=O)c1cn2ncnc(Nc3nc4ccccc4s3)c2c1C` was run?
Its IC50 is 0.003 to 25 µM.

`COC(=O)c1cn2ncnc(Nc3ccc4c(c3)C(=O)NC4=O)c2c1C` was tested. Which IC50 did it give?
Its IC50 is 0.003 to 25 µM.

With `COc1c(NCCCCN2CCOCC2)cn2ncnc(C3C(=O)Nc4ccccc43)c12` (stereo not drawn) as the compound, how does the IC50 read?
Its IC50 is 0.003 to 25 µM.

With `COC(=O)c1cn2ncnc(Nc3ccc(C)c(F)c3)c2c1C` as the compound, how does the IC50 read?
Its IC50 is 0.003 to 25 µM.

How did the IC50 turn out when `CCOC(=O)c1cn2ncnc(Nc3ccc(C)c(O)c3)c2c1C(=O)OCC` was run?
Its IC50 is 0.003 to 25 µM.

How did the IC50 turn out when `CCOC(=O)c1cn2ncnc(NCC3CCC(C#N)CC3)c2c1CC` (stereo not drawn) was run?
The IC50 was 0.003 to 25 µM.

How did the IC50 turn out when `CCOC(=O)c1cn2ncnc(N3CCC4C=CC=CC4C3)c2c1CC` (stereo not drawn) was run?
Its IC50 is 0.003 to 25 µM.

For `COC(=O)c1cn2ncnc(Nc3ccc(C)c([N+](=O)[O-])c3)c2c1C`, which IC50 is on record?
The IC50 was 0.003 to 25 µM.

For `Cc1ccc(Nc2ncnn3cc(Cn4cncn4)c(C)c23)cc1O`, which IC50 is on record?
Its IC50 is 0.003 to 25 µM.

Which IC50 does the source give for `CCc1c(C(=O)N(C)C)cn2ncnc(Nc3ccc4c(cnn4Cc4ccccc4)c3)c12` here?
The IC50 was 0.003 to 25 µM.

How did the IC50 turn out when `CCCCNc1ncnn2cc(C(=O)OCC)c(CC)c12` was run?
The IC50 was 0.003 to 25 µM.

`CCc1c(C(=O)NCCN2CCCC2)cn2nc(C)nc(Nc3ccc(OC)nc3)c12` was tested. Which IC50 did it give?
Its IC50 is 0.003 to 25 µM.

For `COC(=O)c1cn2ncnc(Nc3cccc(CO)c3)c2c1C`, which IC50 is on record?
The IC50 was 0.003 to 25 µM.

With `COC(=O)c1cn2ncnc(C3C(=O)Nc4ccccc43)c2c1C` (stereo not drawn) as the compound, how does the IC50 read?
The IC50 was 0.003 to 25 µM.

How did the IC50 turn out when `COC(=O)c1cn2ncnc(Nc3cc[nH]n3)c2c1C` was run?
The IC50 was 0.003 to 25 µM.

`COC(=O)c1cn2ncnc(C3C(=O)Nc4ccc(C(N)=O)cc43)c2c1C` (stereo not drawn) was tested. Which IC50 did it give?
Its IC50 is 0.003 to 25 µM.

From the Kinase Knowledgebase extract (Sharma et al. 2016)
